In assay [1] the test system is KRC/Y renal carcinoma cells (Phe-176 mutant p53). Nature of the assay: FACS analysis of apoptosis. The assay is classed as cell-based, human. The procedure:
The percentage of apoptotic cells was detected by FACS analysis as it was described in FIG. 3A.
Cells were placed on 12-well plate at a density of 30000/cm^2 and treated with compounds. After 48 h incubation cells were harvested by trypsinization, fixed with 70% ethanol, treated with RNase A (0.25 mg/ml) and stained with propidium iodide (0.02 mg/ml). Samples were analyzed on a Becton Dickinson FACScan. Data were analyzed by the CellQuest software, version 3.2.1.
Thus, it appears that the defect caused by substitution of the Cys residue at position 176 is irreversible. The substitution of this Cys residue abolishes the binding of a Zn atom which holds together the DNA-binding loops of the p53 core domain. Therefore, the unfolding of this mutant p53 protein is probably too extensive to be restored.

Assay [2] deals with SKOV-His-175 cells. Description: p53-responsive EGFP reporter. It is filed as cell-based, human. The source says: FIG. 9B, mutant p53-dependent activation of the wild-type p53-responsive EGFP reporter in PRIMA-1-treated SKOV-His-175 cells. […] FIG. 9C, MIRA-1 induced wild-type p53-responsive EGFP reporter in SKOV-His-175 cells.
The plasmids encoding the GST-human wild type p53 fusion protein and the GST-human mutant p53 proteins His 175 were described earlier (Selivanova et al., 1996). The p53-EGFP plasmid contains 13 synthetic p53 consensus DNA binding sites in front of the EGFP coding sequence. Transient transfections experiments were performed with Lipofectamine 2000 according to the manufacturer's recommendations (Invitrogen™ Life Technologies, Groningen, The Netherlands).
We also transiently transfected SKOV-His-175 cells with a p53-responsive EGFP reporter.

In assay [3] the test system is p53-responsive PG-luciferase reporter in Saos-2-His-273 cells. Description: PG-luciferase reporter assay. It is filed as cell-based, human. The procedure:
Transactivation assays using p53-responsive promoter constructs linked to the luciferase reporter gene (PG-luc) were performed by the Dual Luciferase Reporter Assay System (Promega) according to the manufacturer. […] A luciferase activity was assayed 1; 3.5 and 15 hours post-treatment.

For assay [4], the system named is Saos-2-His-273 cells. Description: Colony formation assay. The assay is classed as cell-based, human. The text has this:
Colonies were stained with Giemsa and counted 14 days after seeding.
The cells were Giemsa stained and scored for the appearance of colonies after 14 days.

The target of assay [5] is T1, GST-wild type p53 protein (Homo sapiens, UniProt P04637).
T1 construct: made in house
T1 sequence (P04637 whole entry): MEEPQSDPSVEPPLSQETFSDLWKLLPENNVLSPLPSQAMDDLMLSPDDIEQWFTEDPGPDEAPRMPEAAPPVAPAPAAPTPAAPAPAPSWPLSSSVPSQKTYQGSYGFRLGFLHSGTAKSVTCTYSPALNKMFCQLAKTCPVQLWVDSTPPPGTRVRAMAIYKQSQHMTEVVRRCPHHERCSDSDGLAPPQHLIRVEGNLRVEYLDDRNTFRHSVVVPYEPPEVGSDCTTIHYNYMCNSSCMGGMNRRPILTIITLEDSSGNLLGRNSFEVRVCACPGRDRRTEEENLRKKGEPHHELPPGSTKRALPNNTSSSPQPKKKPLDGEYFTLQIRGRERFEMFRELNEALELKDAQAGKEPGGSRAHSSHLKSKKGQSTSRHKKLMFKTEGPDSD
Description: Band shift assay, heat-inactivated protein. The assay is classed as biochemical. Particulars: protein inactivated at 37° C. for 30 min. How it is done:
Lane 3, inactivation of DNA binding of wtp53 by heating.
The GST-p53 proteins were prepared as described (Selivanova et al., 1997). Band shift assays were performed in binding buffer containing 100 mM HEPES pH 7.5, 50 mM KCl , 1 mg/ml BSA, 0.1% Triton X-100, 2 mM MgCl2 and 1 mM DTT essentially as in (Selivanova et al., 1996).
Substitution of arginin at position 175 causes a gross unfolding of the DNA binding core domain of p53. Therefore, the restoration of the DNA binding of this mutant was regarded as an exceptionally difficult task.

Assay [6] has as its system recombinant wild type and mutant p53 proteins. Description: ELISA of p53 conformation upon heating 30 min at 37° C. It is filed as biochemical, human. The conditions noted are these: for appearance of PAb240 epitope (unfolding) upon heating: 37° C.; for PAb1620 epitope after heating: 30 min at 37° C.; for DO-1 non-conformational epitope: incubation with compounds. The procedure:
Absorbance of the control sample incubated on ice was taken as 100%.
20 ng of GST-wtp53, GST-mtp53-175 and GST-mtp53-248 were heated at 37° C. for 30 min or kept on ice. The procedure was performed with or without tested compounds. The ELISA analyses were done as described by (Foster et al., 1999). Briefly, after the treatment, samples were diluted with coating buffer (150 mM KCL, 25 mM HEPES) supplemented with 10 mM DTT. The whole mixture was apply to ELISA plates (MaxiSorp, Nunc) and incubated at +4° C. for 35 min. The wells were washed with coating buffer. The wells were blocked by 5% skim milk in PBS by incubating at +4° C. for 1 h. […] Samples were incubated at +4° C. for 30 min. Wells were rinsed twice with PBS. After that, a secondary antibody (anti-mouse, conjugated with horse radish peroxidase) was incubated with samples at +4° C. for 30 min. Then plates were washed 5 times with PBS and a peroxidase substrate was added. An absorbance at λ405 nm was monitored by ELISA reader.

Assay [7] concerns human tumor cell lines with different p53 status (p53 null, wild type p53, mutant p53). Nature of the assay: WST-1 growth suppression, series of tumor cell lines. The assay is classed as cell-based. The text has this: In addition, mouse p53 null J3D T-cell lymphoma line was used.
In assay [8] the test system is SKOV-His-175 cells. Nature of the assay: WST-1 proliferation assay. The assay is classed as cell-based, human. Particulars: for increase in cell survival by cycloheximide pretreatment: cycloheximide before addition of compound. The procedure: FIG. 13B, PRIMA-3 reactivated the hot spot p53 mutant Trp-248 in H1299 lung adenocarcinoma cells. FIG. 13C, MIRA-2 and MIRA-3 reactivated His-175 mutant of p53 in SKOV cells. […] FIG. 13G, PRIMA-2 reactivated mutant p53 His-273 in SKOV cells.
Saos-2-His-273 cell line stably transfected with construct allowing expression of mutant His-273 p53 in a tetracycline-dependent manner was used for screening (Selivanova et al., 1997). p53 expression was inhibited by incubation of cells with doxycycline (5 μg/ml). Cells were grown in 96-well plates at a density of 3000 cells per well with or without doxycycline and treated with 25 μM of the compounds from the NCI library of low molecular weight (LMW) compounds. After 48 hours of incubation the proliferative cell reagent WST-1 (Roche) was added to the cells. The degree of WST-1 reduction, which reflects cell viability, was measured by microplate reader at λ490 nm according to the manufacturer (Roche).
The cycloheximide treatment renders SKOV-His-175 resistant to MIRA-1 as well, resulting in about 4 fold increase in cell survival. […] In addition, SKOV-His-175 cells were at least 3 fold more sensitive to treatment with MIRA-1 in comparison with SKOV-His-175-22/23 cells.
Growth suppression by analogs in the presence or absence of p53 expression was measured as described in FIG. 1. […] Analogs of MIRA-1 induced mutant p53-dependent growth suppression in SKOV-His-175 cells (FIG. 13C).

In assay [9] the test system is H1299-His-175 cells. Nature of the assay: Western blot of p53 target genes p21 and MDM2. The assay is classed as cell-based, human.
Setting [10] is: absence of mutant p53 expression.
Where [11] appears, read: cells expressing mutant p53, PRIMA-1 25 μM, MIRA-1 10 μM.

Regarding `CCC(=O)OCN1C(=O)C=CC1=O` [MIRA-1], in assay [1] (50 μM), the “induction of apoptosis compared to Saos-2-His-273 cells” value is on record as “much less prominent”. Besides, the EGFP reporter expression entry in [2] (5μM for 24 hours) is recorded as “induction of EGFP was also observed”. Further, the “stimulation of luciferase expression” value in [3] (after 3.5 hours, 10 μM) came out at 2 fold. Also, the “number of colonies, % of untreated control” value in assay [4] (5 µM of compound, colonies after 14 days) was found to be 15%. The “restoration of specific DNA binding” value in assay [5] is recorded as “able to restore”. For the same compound, in assay [6], the “appearance of PAb240 epitope (unfolding) upon heating” value is “able to prevent unfolding”, the “PAb1620 epitope after heating” value is given as “preserve the conformation-dependent epitope” and the DO-1 non-conformational epitope entry is “not affected”. Also, the “growth suppression of mutant p53-expressing cells versus p53 null and wild type p53 cells” value in assay [7] is reported as “more efficiently”. Besides, in assay [8], the “sensitivity of SKOV-His-175 cells in comparison with SKOV-His-175-22/23 cells” value is “at least 3 fold” and the “increase in cell survival by cycloheximide pretreatment” value is listed as “about 4 fold”. Moreover, in assay [9] (setting [10]), the “induction of MDM2 and p21” value is on record as “did not cause any induction”. For the same compound, the “induction of MDM2 and p21” value in assay [9] (setting [11]) was “solid induction of both MDM2 and p21”.

Regarding `O=C1C2CCN(CC2)C1(CO)CO` [PRIMA-1, 2,2-bis(hydroxymethyl)-1-azabicyclo[2,2,2]octan-3-one], the “induction of apoptosis compared to Saos-2-His-273 cells” value in assay [1] (75 μM) is “much less prominent”. Further, the EGFP reporter expression entry was “strong induction of EGFP expression” in assay [2] (cells expressing mutant p53, 24 hours) and “did not express detectable levels of EGFP” in assay [2] (doxycycline (p53 off), 24 hours). Moreover, the “induction of luciferase expression” value in [3] (after 15 hours, 50 μM) is 2 fold. Besides, the “doses inhibitory to colony formation in a mutant p53-dependent manner” value in assay [4] (Saos-2-His-273 vs Saos-2) is 50 to 100 µM. Further, in [5], the “restoration of specific DNA binding” value is on record as “able to restore”. Besides, in assay [6], the “appearance of PAb240 epitope (unfolding) upon heating” value was “able to prevent unfolding”. Further, the “PAb1620 epitope after heating” value in assay [6] was “preserve the conformation-dependent epitope”. In addition, in assay [6], the DO-1 non-conformational epitope result was “not affected”. In addition, the “growth suppression of mutant p53-expressing cells versus p53 null and wild type p53 cells” value in assay [7] was “more efficiently”. In addition, in assay [8], the “increase in cell survival by cycloheximide pretreatment” value is recorded as 4 fold. Moreover, the “induction of MDM2 and p21” value is “did not cause any induction” in assay [9] (setting [10]); “solid induction of both MDM2 and p21” in assay [9] (setting [11]).
